Seven molecules from patent US7999069B2, “EphB receptor-binding peptides” (Sanford-Burnham Medical Research Institute, priority 2005, dated 2011) can be followed below.

The target in test [1] is T1, EphB4 (Homo sapiens, UniProt P54760).
T1 construct: panned on the ectodomains of EphB1, EphB2, or EphB4 fused to human Fc
T1 sequence (P54760 16-539 limits assumed): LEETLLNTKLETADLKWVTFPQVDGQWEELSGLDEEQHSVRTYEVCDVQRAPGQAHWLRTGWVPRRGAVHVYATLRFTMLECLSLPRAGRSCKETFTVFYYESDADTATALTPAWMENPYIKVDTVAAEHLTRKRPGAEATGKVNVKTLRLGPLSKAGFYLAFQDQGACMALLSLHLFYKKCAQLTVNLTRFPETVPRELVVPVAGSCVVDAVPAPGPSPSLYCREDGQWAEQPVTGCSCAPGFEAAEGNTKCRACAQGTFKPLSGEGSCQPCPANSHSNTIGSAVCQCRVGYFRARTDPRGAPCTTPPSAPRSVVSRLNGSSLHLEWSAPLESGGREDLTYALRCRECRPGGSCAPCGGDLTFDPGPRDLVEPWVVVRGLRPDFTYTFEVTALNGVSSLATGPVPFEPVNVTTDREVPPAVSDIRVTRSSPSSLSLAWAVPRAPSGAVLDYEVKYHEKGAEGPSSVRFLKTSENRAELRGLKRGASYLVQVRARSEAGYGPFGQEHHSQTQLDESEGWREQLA
The experiment in a line: Inhibition of ephrin-B2 AP binding to immobilized EphB4 ectodomain. The protocol: Peptides that bind to the same receptor region as the ephrins would be expected to inhibit Eph receptor-ephrin association, if they interact with sufficient affinity. A number of synthetic peptides were tested for their ability to inhibit binding of alkaline phosphatase-tagged ephrin-B2 (ephrin-B2-AP) to EphB receptors (FIG. 3). Most of the peptides were synthesized with a biotin tag and immobilized on streptavidin plates to verify their ability to capture the EphB ectodomains used for their isolation.
Ephrin-B2 AP binding to the indicated immobilized EphB receptor ectodomains was measured in the presence of the indicated peptides and detected by measuring alkaline phosphatase activity. […]. […] Wells coated with the different EphB ectodomains were incubated with ephrin-B2 AP and 50 μM of the indicated peptides. Ephrin-B2 AP binding in the presence of peptide was normalized to binding in the absence of peptide. All peptides were biotinylated except for FSPQ and EWYM. […] Therefore, IPWT was not used for further experiments. The EWYM, TWO, and FSPQ peptides were not synthesized with a biotin tag and therefore were tested directly for inhibition of ephrin-B2 binding. The EWLS, SNEW, and TNYL peptides were selective because they antagonized ephrin binding to only one EphB receptor (FIGS. 3B, D, and F).
The GP motif aligns with the GP motif of TNYL and the RAW motif aligns precisely next to the last amino acid of TNYL. […] For competition assays between peptides and ephrin-B2 alkaline phosphatase fusion protein (ephrin-B2 AP), the concentration of ephrin-B2 AP used was adjusted to obtain similar signals with different EphB receptors (0.135-1.45 OD min^−1ml^−1). Ephrin-B2 AP was co-incubated for 1 hr with different peptide concentrations in Ni-NTA wells coated with 1 μg/ml Eph receptor Fc. After several washes, the amount of ephrin-B2-AP bound was quantified using p-nitrophenylphosphate as a substrate. Alkaline phosphatase activity from wells without EphB Fc was subtracted as background. […] […]. In these experiments, the two peptides are not biotinylated. […] Ephrin-B2-AP binding in the presence of peptide was normalized to binding in the absence of peptide in (A) and (B). […] Endogenous EphB4 was immunoprecipitated from MCF7 breast cancer cells after stimulation with ephrin-B2 Fc, or Fc as a control, and probed by immunoblotting with anti-phosphotyrosine antibodies (PTyr). […] The filters were reprobed with EphB4 antibodies to confirm equal amounts of immunoprecipitated receptor.

A further test deals with Eph receptor Fc proteins. The experiment in a line: Immobilized biotinylated peptides capturing Eph receptor Fc proteins on streptavidin plates. The class given is binding. The following applies: for Eph receptor binding selectivity of immobilized biotinylated peptide: A- and B-class Eph receptor Fc proteins.
The test system of another test is EphB receptors. Description: Ephrin-B2 AP binding to different EphB ectodomains in presence of peptide (selectivity). The following applies: 10 μM peptide.
In test [2] the target is T2, EphB4 (Homo sapiens, UniProt P54760).
T2 construct: MCF-7 human breast cancer cells, which endogenously express EphB4; endogenous in cells; host or cells: MCF7
T2 sequence (P54760 16-987): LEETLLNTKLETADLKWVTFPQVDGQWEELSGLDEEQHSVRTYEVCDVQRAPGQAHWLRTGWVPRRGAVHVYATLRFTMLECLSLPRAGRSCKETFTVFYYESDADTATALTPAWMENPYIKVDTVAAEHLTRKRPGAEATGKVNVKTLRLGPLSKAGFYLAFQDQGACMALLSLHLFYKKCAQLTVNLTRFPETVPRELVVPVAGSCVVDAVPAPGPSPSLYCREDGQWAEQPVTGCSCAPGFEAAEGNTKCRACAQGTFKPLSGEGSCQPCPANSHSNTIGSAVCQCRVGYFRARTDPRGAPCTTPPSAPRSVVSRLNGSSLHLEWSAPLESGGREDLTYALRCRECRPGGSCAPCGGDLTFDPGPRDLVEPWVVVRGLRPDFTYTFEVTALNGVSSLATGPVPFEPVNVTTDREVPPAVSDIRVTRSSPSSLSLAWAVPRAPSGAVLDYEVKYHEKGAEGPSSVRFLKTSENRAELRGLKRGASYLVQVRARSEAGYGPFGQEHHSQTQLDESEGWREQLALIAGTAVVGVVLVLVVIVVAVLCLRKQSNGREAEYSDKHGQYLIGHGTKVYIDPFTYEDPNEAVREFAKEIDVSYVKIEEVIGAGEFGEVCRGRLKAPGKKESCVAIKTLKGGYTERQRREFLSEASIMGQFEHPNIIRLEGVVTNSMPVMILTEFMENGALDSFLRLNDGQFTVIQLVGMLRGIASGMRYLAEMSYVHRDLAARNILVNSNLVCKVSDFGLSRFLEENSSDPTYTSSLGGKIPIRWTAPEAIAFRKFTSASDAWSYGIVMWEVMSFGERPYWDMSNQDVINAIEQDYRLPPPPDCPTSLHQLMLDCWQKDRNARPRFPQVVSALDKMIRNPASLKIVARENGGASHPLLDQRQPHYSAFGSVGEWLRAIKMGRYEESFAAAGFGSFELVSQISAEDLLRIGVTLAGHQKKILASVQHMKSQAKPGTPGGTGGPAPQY
The experiment in a line: Ephrin-B2 Fc-induced EphB4 tyrosine phosphorylation in breast cancer cells. The class given is cell-based. Conditions: MCF7 cells. On the procedure:
Preincubation of COS cells with the SNEW peptide in a concentration-dependent manner blocked the ability of ephrin-B1 Fc to induce tyrosine phosphorylation, and therefore activation, of endogenous EphB2 (FIG. 4A). EphB2 was immunoprecipitated from COS cells after stimulation with ephrin-B1 Fc, or Fc as a control, in the presence of the indicated concentrations of SNEW peptide and control RTVA peptide. For EphB2 immunoprecipitations, COS cells were serum-starved in DME high glucose for 3 hrs prior to stimulation with 1 μg/ml ephrin-B1 Fc or Fc protein in the presence or absence of EphB2-binding peptides or a control peptide. […] After ephrin stimulation, the cells were lysed in modified RIPA buffer (150 mM NaCl, 1 mM EDTA, 1% Triton X-100, 1% Na deoxycholate, 0.1% SDS, 20 mM Tris pH 8.0) with protease inhibitors and 1 mM sodium orthovanadate. Cell lysates were used for immunoprecipitation with either 5 μg EphB2 antibodies or 10 μg EphB4 antibodies. […]
The GP motif aligns with the GP motif of TNYL and the RAW motif aligns precisely next to the last amino acid of TNYL. […] After several washes, the amount of ephrin-B2-AP bound was quantified using p-nitrophenylphosphate as a substrate. […]

For test [3], the target named is T2, EphB4. Description: Peptide pull-down of EphB4 from MCF7 or transfected 293T cells. In kind it is binding. The protocol: The ability of the peptides to bind in a stable manner, which is important for both targeting and competitive inhibition, was tested in pull-down experiments. For peptide pull-down experiments, cells in 60 cm plates at 70% confluency or adult mouse brain tissue were solubilized in pull-down buffer (50 mM HEPES pH 7.5, 150 mM NaCl, 10% glycerol, 1% Triton-X100, 5 mM KCl and 1 mM EDTA). Three μg of biotinylated peptide were incubated for 45-90 min with 5 μl streptavidin agarose beads (Sigma), unbound peptide was washed away, and the beads were incubated with the cell lysates for 45-90 min. Proteins bound to the beads were separated by SDS-polyacrylamide gel electrophoresis and probed by immunoblotting with EphB1, EphB2, or EphB4 antibodies. The EphB1 antibody (Santa Cruz) was detected with a secondary anti-goat IgG peroxidase-conjugated antibody (BioRad Laboratories). The EphB2 and EphB4 antibodies were affinity-purified polyclonal antibodies to GST fusion proteins containing approximately 100 amino acids from the carboxy-terminal tails of the EphB2 or EphB4 receptors (Noren, N. K. et al. 2004 PNAS USA 101:5583-5588; Holash, J. A. & Pasquale, E. B. 1995 Devel Biol 172:683-693) and were detected with a secondary anti-rabbit IgG peroxidase-conjugated antibody (Amersham Biosciences).
Endogenous EphB receptors were isolated from lysates of mouse brain or cultured cells using the EWLS, SNEW, and TNYL peptides immobilized on streptavidin beads (FIGS. 5B, F, G and H). […] RTVA was used as a control peptide for the EphB4 pull downs. The NPVI peptide could isolate EphB4 from transfected cells but not endogenous EphB4 from MCF7 cells, which is present at lower levels (FIGS. 5B, F, G and H). […] EphB receptors were not detected bound to the beads coated with the other peptides.

Setting [4] is: Peptide IC50: concentration of peptide required to inhibit ephrin-B2 AP binding by 50%, biotinylated synthetic peptides except EWYM and FSPQ.

Several values for one entry are separate records, joined by “and”; a condition that tells them apart may be missing. Equal entries are not always repeated. Where two headings read alike, the source gives them in different places. No end group written: not given here.

Description for Eph receptor Fc proteins: To measure the specificity of peptide binding to Eph receptors, biotinylated peptides were immobilized on streptavidin-coated plates at 10 μM (Pierce Biotechnology, Rockford, Ill.) and incubated for 1 hr with different Eph ectodomain Fc fusion proteins at 2.5 μg/ml in binding buffer. Bound receptor was detected using an anti-Fc antibody coupled to alkaline phosphatase (Promega) with p-nitrophenylphosphate as substrate (Pierce). The background that was subtracted from the measurements was determined by omitting the Eph ectodomain.
Biotinylated peptides were immobilized on streptavidin-coated plates and used to capture Eph receptor Fc proteins. Bound receptor was detected using anti-Fc antibody coupled to alkaline phosphatase and was normalized to the value in the well with highest receptor binding.
Description for EphB receptors: Ephrin-B2 AP binding to the indicated immobilized EphB receptor ectodomains was measured in the presence of the indicated peptides and detected by measuring alkaline phosphatase activity. […] Wells coated with the different EphB ectodomains were incubated with ephrin-B2 AP and 50 μM of the indicated peptides. Ephrin-B2 AP binding in the presence of peptide was normalized to binding in the absence of peptide. All peptides were biotinylated except for FSPQ and EWYM. […] The EWYM, TWO, and FSPQ peptides were not synthesized with a biotin tag and therefore were tested directly for inhibition of ephrin-B2 binding.
Ephrin-B2 AP was co-incubated for 1 hr with different peptide concentrations in Ni-NTA wells coated with 1 μg/ml Eph receptor Fc. After several washes, the amount of ephrin-B2-AP bound was quantified using p-nitrophenylphosphate as a substrate. Alkaline phosphatase activity from wells without EphB Fc was subtracted as background. […] In these experiments, the two peptides are not biotinylated. […] Ephrin-B2-AP binding in the presence of peptide was normalized to binding in the absence of peptide in (A) and (B).

`CC[C@H](C)[C@H](NC(=O)[C@@H]1CCCN1C(=O)CNC(=O)[C@H](CC(N)=O)NC(=O)[C@@H]1CCCN1C(=O)[C@H](CO)NC(=O)[C@H](Cc1ccccc1)NC(=O)[C@H](CC(C)C)NC(=O)[C@H](Cc1ccc(O)cc1)NC(=O)[C@H](CC(N)=O)NC(=O)[C@@H](N)[C@@H](C)O)C(=O)N[C@@H](C)C(=O)O` [SEQ ID NO 24]: the IC50 at EphB4 [1] (setting [4]) is around 50 µM; at EphB4 [1] (non-biotinylated peptide, read-out: IC50 for inhibition of ephrin-B2 AP binding), 150 µM and ~150 µM.

With “SEQ ID NO 10: 12-mer from EphB2 panning; printed DHWRI[image]PFSLSS (DHWRILPFSLSS)”, in the test with Eph receptor Fc proteins, the “Eph receptor binding selectivity of immobilized biotinylated peptide” value is “less specific”.

Consider TNYLFSPNGPIARAW [TNYL-RAW], for which the 50% inhibitory concentration (IC50) on EphB4 [1] (non-biotinylated peptide or dimeric ephrin-B2 Fc, read-out: IC50 for inhibition of ephrin-B2 AP binding to EphB4) is around 0.015 µM. The “Selectivity of antagonism of ephrin-B2 AP binding across EphB ectodomains” value in the test with EphB receptors was “inhibits binding of ephrin-B2 AP to the immobilized EphB4 ectodomain but not other EphB ectodomains”. In addition, the “Inhibition of basal EphB4 tyrosine phosphorylation” value at EphB4 [2] is given as “inhibited”. For the same molecule, at EphB4 [2] (concentration-dependent), the “Inhibition of ephrin-B2 Fc-induced EphB4 tyrosine phosphorylation” value was “inhibited in a concentration-dependent manner EphB4 tyrosine phosphorylation”.

Molecule DHNHNLYNPWRL [SEQ ID NO 21] yielded an IC50 at EphB4 [1] (setting [4]) of around 200 µM.

In the case of “SEQ ID NO 14: 12-mer from EphB2 panning; printed SHW[image]ISPYSLLS (SHWPISPYSLLS)”, in the test with Eph receptor Fc proteins, the “Eph receptor binding selectivity of immobilized biotinylated peptide” value is “less specific”.

In the case of NPVIGPIQRAWT [SEQ ID NO 27], in the test with EphB4 [3] (MCF7 breast cancer cell line), the “Pull-down of endogenous EphB4” value is “did not detectably bind”. In the test with EphB4 [3] (transfected 293T human embryonic kidney cells), the “Pull-down of transfected EphB4” value is listed as “bound the more highly expressed EphB4”.

Turning to “SEQ ID NO 34: 12-mer from EphB4 panning; printed IPWTQ[image]MAMSPM (IPWTQHMAMSPM)”, the “Capture of the EphB ectodomain used for isolation by immobilized biotinylated peptide” value with Eph receptor Fc proteins (EphB4) is “failed to bind”.

The term IC50 denotes the concentration needed to halve the response being measured.
